Measurements published in US9394300B2, “Quinolone derivatives” (Cadila Healthcare Limited, priority 2012, dated 2016).

What was measured:
[1] = tested on: C57 Mice; assay: Estimating circulating EPO release in mice (plasma EPO by mouse EPO ELISA); type: in vivo; conditions: plasma six hours after administration, EPO in control = 62 ng/mL
Procedure: (1) Protocol for Estimating Circulating EPO Release in Mice
C57 Mice were administered various doses (10 mg/kg, 30 mg/kg, 50 mg/kg, 100 mg/kg) of compounds of the present invention by oral gavage at 10 ml/kg. Six hours after compound administration, mice were bled by retro-orbital puncture, under light ether anesthesia in microfuge tubes containing 2% EDTA (10 μl/100 μl of blood). Plasma was separated and analyzed for EPO content by mouse EPO ELISA.

[2] = tested on: C57 Mice; assay: Estimating hemoglobin levels in mice; type: in vivo; conditions: oral once daily for 7 consecutive days at 20 mg/kg, whole blood on 8th day
Procedure: (2) Protocol for Estimating Hemoglobin Levels in Mice
C57 mice were administered compounds of the present invention at 10 ml/kg by oral route daily once in the morning for 7 consecutive days at 20 mg/kg. On 8th day animals were bled by retro-orbital puncture under light ether anesthesia in microfuge tubes containing 2% EDTA (10 μl/100 μl of blood) for whole blood. Hemoglobin, Reticulocyte count and RBC count were measured using standard procedures.

| SMILES | EPO (ng/mL) oral gavage 10 mg/kg [1] [ng/mL] | EPO (ng/mL) oral gavage 50 mg/kg [1] [ng/mL] | other results |
| --- | --- | --- | --- |
| O=C(O)CNC(=O)c1c(O)c2ccccc2n(OCc2ccccc2)c1=O [Example 1, 2-(1-(benzyloxy)-4-hydroxy-2-oxo-1,2-dihydroquinoline-3-carboxamido)acetic acid] | – | – | EPO (ng/mL) oral gavage 100 mg/kg [1]: 7118 ng/mL |
| O=C(O)CNC(=O)c1c(O)c2ccccc2n(OCC2CC2)c1=O [Example 2, 2-(1-(cyclopropylmethoxy)-4-hydroxy-2-oxo-1,2-dihydroquinoline-3-carboxamido)acetic acid] | 396 | – | EPO (ng/mL) oral gavage 30 mg/kg [1]: 4822 ng/mL; Hemoglobin (g/dL) 20 mg/kg compound [2]: 16.3 g/dL |
| COn1c(=O)c(C(=O)NCC(=O)O)c(O)c2ccccc21 [Example 11, 2-(4-hydroxy-1-methoxy-2-oxo-1,2-dihydroquinoline-3-carboxamido)acetic acid] | – | – | EPO (ng/mL) oral gavage 100 mg/kg [1]: 1593 ng/mL |
| O=C(O)CNC(=O)c1c(O)c2ccccc2n(OCc2ccc(C(F)(F)F)cc2)c1=O [Example 12, 2-(4-hydroxy-2-oxo-1-((4-(trifluoromethyl)benzyl)oxy)-1,2-dihydroquinoline-3-carboxamido)acetic acid] | – | – | EPO (ng/mL) oral gavage 100 mg/kg [1]: 7056 ng/mL |
| C=CCOn1c(=O)c(C(=O)NCC(=O)O)c(O)c2ccccc21 [Example 15, 2-(1-(allyloxy)-4-hydroxy-2-oxo-1,2-dihydroquinoline-3-carboxamido)acetic acid] | 315 | 4269 | Hemoglobin (g/dL) 20 mg/kg compound [2]: 13.2 g/dL |
| O=C(O)CNC(=O)c1c(O)c2ccccc2n(OCc2c(F)cccc2F)c1=O [Example 16, 2-(1-((2,6-difluorobenzyl)oxy)-4-hydroxy-2-oxo-1,2-dihydroquinoline-3-carboxamido)acetic acid] | 100 | 8043 | – |
| O=C(O)CNC(=O)c1c(O)c2ccc(Cl)cc2n(OCc2c(F)cccc2F)c1=O [Example 20, 2-(7-chloro-1-((2,6-difluorobenzyl)oxy)-4-hydroxy-2-oxo-1,2-dihydroquinoline-3-carboxamido)acetic acid] | – | 3797 | – |
| CCCOn1c(=O)c(C(=O)NCC(=O)O)c(O)c2ccccc21 [Example 21, 2-(4-hydroxy-2-oxo-1-propoxy-1,2-dihydroquinoline-3-carboxamido) acetic acid] | 190 | – | EPO (ng/mL) oral gavage 30 mg/kg [1]: 6234 ng/mL; Hemoglobin (g/dL) 20 mg/kg compound [2]: 15.8 g/dL |
| O=C(O)CNC(=O)c1c(O)c2ccccc2n(OCc2ccccc2F)c1=O [Example 62, 2-(1-((2-fluorobenzyl)oxy)-4-hydroxy-2-oxo-1,2-dihydroquinoline-3-carboxamido)acetic acid] | – | 398 | – |
| CCOn1c(=O)c(C(=O)NCC(=O)O)c(O)c2ccccc21 [Example 63, 2-(1-ethoxy-4-hydroxy-2-oxo-1,2-dihydroquinoline-3-carboxamido)acetic acid] | – | 539 | – |
| COc1ccc(COn2c(=O)c(C(=O)NCC(=O)O)c(O)c3ccccc32)cc1 [Example 67, 2-(4-hydroxy-1-((4-methoxybenzyl)oxy)-2-oxo-1,2-dihydroquinoline-3-carboxamido)acetic acid] | – | 477 | – |
